Measurements published in the NIST ThermoML archive (doi:10.1016/j.tca.2004.11.015).
± gives the expanded uncertainty stated by the source.

Experiment: xn = mol fraction of the nth substance listed
Settings: 101.33 kPa, Liquid, Vibrating tube method

NCCO [2-aminoethan-1-ol] + CO
mass density [kg/m3]
Settings | 283.15 K | 288.15 K | 293.15 K | 298.15 K | 303.15 K | 308.15 K | 313.15 K | 318.15 K
x1 = 0.012 | 805.83 ± 0.14 | 801.17 ± 0.14 | 796.49 ± 0.15 | 791.8 ± 0.15 | 787.1 ± 0.15 | 782.38 ± 0.15 | 777.63 ± 0.16 | 772.84 ± 0.16
x1 = 0.031 | 813.82 ± 0.14 | 809.2 ± 0.14 | 804.57 ± 0.15 | 799.92 ± 0.15 | 795.25 ± 0.15 | 790.55 ± 0.15 | 785.84 ± 0.15 | 781.09 ± 0.16
x1 = 0.05 | 821.45 ± 0.14 | 816.86 ± 0.14 | 812.26 ± 0.14 | 807.64 ± 0.15 | 803 ± 0.15 | 798.35 ± 0.15 | 793.66 ± 0.15 | 788.95 ± 0.16
x1 = 0.1 | 840.61 ± 0.14 | 836.11 ± 0.15 | 831.59 ± 0.15 | 827.05 ± 0.15 | 822.49 ± 0.15 | 817.92 ± 0.15 | 813.31 ± 0.15 | 808.68 ± 0.16
x1 = 0.15 | 858.27 ± 0.15 | 853.79 ± 0.15 | 849.33 ± 0.16 | 844.86 ± 0.16 | 840.37 ± 0.16 | 835.87 ± 0.16 | 831.33 ± 0.16 | 826.77 ± 0.16
x1 = 0.2002 | 874.67 ± 0.17 | 870.3 ± 0.17 | 865.9 ± 0.17 | 861.49 ± 0.17 | 857.06 ± 0.17 | 852.62 ± 0.17 | 848.14 ± 0.17 | 843.64 ± 0.17
x1 = 0.2501 | 889.65 ± 0.18 | 885.33 ± 0.18 | 880.98 ± 0.18 | 876.62 ± 0.18 | 872.24 ± 0.18 | 867.83 ± 0.19 | 863.41 ± 0.19 | 858.96 ± 0.19
x1 = 0.2974 | 902.94 ± 0.2 | 898.66 ± 0.2 | 894.35 ± 0.2 | 890.03 ± 0.2 | 885.69 ± 0.2 | 881.34 ± 0.2 | 876.95 ± 0.2 | –
x1 = 0.3502 | 916.72 ± 0.22 | 912.48 ± 0.22 | 908.21 ± 0.22 | 903.94 ± 0.22 | 899.65 ± 0.22 | 895.33 ± 0.22 | 891 ± 0.22 | –
x1 = 0.4001 | 928.53 ± 0.24 | 924.32 ± 0.24 | 920.09 ± 0.24 | 915.84 ± 0.24 | 911.58 ± 0.24 | 907.3 ± 0.24 | 903 ± 0.24 | –
x1 = 0.4427 | 938.12 ± 0.26 | 933.94 ± 0.26 | 929.73 ± 0.26 | 925.51 ± 0.26 | 921.28 ± 0.26 | 917.02 ± 0.26 | 912.75 ± 0.26 | –
x1 = 0.4502 | 939.89 ± 0.26 | 935.71 ± 0.26 | 931.52 ± 0.26 | 927.31 ± 0.26 | 923.08 ± 0.26 | 918.84 ± 0.26 | 914.57 ± 0.26 | –
x1 = 0.5002 | 950.16 ± 0.28 | 946.01 ± 0.28 | 941.84 ± 0.28 | 937.66 ± 0.28 | 933.46 ± 0.28 | 929.24 ± 0.28 | 925 ± 0.28 | –
x1 = 0.5501 | 959.78 ± 0.3 | 955.65 ± 0.3 | 951.5 ± 0.3 | 947.35 ± 0.3 | 943.18 ± 0.3 | 938.99 ± 0.3 | 934.78 ± 0.3 | –
x1 = 0.6001 | 968.89 ± 0.32 | 964.79 ± 0.32 | 960.67 ± 0.32 | 956.54 ± 0.32 | 952.39 ± 0.32 | 948.22 ± 0.32 | 944.04 ± 0.31 | –
x1 = 0.6501 | 977.39 ± 0.34 | 973.31 ± 0.34 | 969.21 ± 0.34 | 965.1 ± 0.34 | 960.97 ± 0.34 | 956.84 ± 0.34 | 952.68 ± 0.34 | –
x1 = 0.7005 | 985.59 ± 0.36 | 981.53 ± 0.36 | 977.45 ± 0.36 | 973.37 ± 0.36 | 969.28 ± 0.36 | 965.16 ± 0.36 | 961.03 ± 0.36 | –
x1 = 0.7479 | 992.48 ± 0.39 | 988.45 ± 0.39 | 984.39 ± 0.38 | 980.32 ± 0.38 | 976.24 ± 0.38 | 972.15 ± 0.38 | 968.04 ± 0.38 | –
x1 = 0.8002 | 1000.19 ± 0.41 | 996.18 ± 0.41 | 992.15 ± 0.41 | 988.11 ± 0.41 | 984.06 ± 0.41 | 980 ± 0.41 | 975.92 ± 0.41 | –
x1 = 0.8502 | 1006.55 ± 0.44 | 1002.56 ± 0.44 | 998.55 ± 0.44 | 994.53 ± 0.43 | 990.5 ± 0.43 | 986.45 ± 0.43 | 982.4 ± 0.43 | –
x1 = 0.8967 | 1012.63 ± 0.46 | 1008.66 ± 0.46 | 1004.66 ± 0.46 | 1000.67 ± 0.46 | 996.66 ± 0.46 | 992.63 ± 0.46 | 988.6 ± 0.45 | –
x1 = 0.9501 | 1018.78 ± 0.49 | 1014.82 ± 0.49 | 1010.85 ± 0.49 | 1006.88 ± 0.49 | 1002.89 ± 0.48 | 998.89 ± 0.48 | 994.88 ± 0.48 | –
